Laboratory results as given in patent publication US8337871B2, “Insecticide formulation” (Endura S.p.A., priority 2003, dated 2012).

What was measured:
[1] = tested on: cotton aphid strain (Aphis Gossypii); assay: Mortality assay on cotton aphid (example 19); conditions: for No. insects alive/no. total insects after 24 hours: in Agral 90, 24 hours
Description: In a mortality assay conducted as reported in the literature [Gunning R. V. et al., J. Econ. Entomol.
A mortality assay was performed as reported in example 4 on a cotton aphid strain (Aphis Gossypii) using the formulation described in example 10, dissolved in 10 ml Agral 90. Data obtained with fenvalerate dissolved in 10 ml Agral 90, and with placebo (10 ml Agral 90) are shown as a reference. In all tests, concentration values are referred to the amount of active principle.

[2] = tested on: Bemisia Tabaci strain (B-Biotype) (Silver leaf whitefly); assay: Mortality assay on Bemisia Tabaci (example 18); format: in vivo; conditions: in Agral 90, 48 hours
Description: (B-Biotype) (Silver leaf whitefly) using the formulation described in example 16, dissolved in 10 ml Agral 90.

[3] = tested on: Heicoverpa Armigera strain (Cotton Bollworm); assay: Mortality assay on Cotton Bollworm (example 20); format: in vivo; conditions: in Agral 90, 24 hours
Description: Data obtained with αcypermethrin dissolved in 10 ml Agral 90, and with a mixture of αcypermethrin/PBO dissolved in 10 ml of Agral 90 (the PBO content being 0.2% with respect to αcypermethrin) are shown as a reference.

[4] = concentration 0.01 % w/v active principle
[5] = concentration 0.1 % w/v active principle
[6] = concentration 0.0005 % w/v active principle
[7] = concentration 0.001 % w/v active principle

Compound	mortality at 0.002 % strength ([1]; Aphis gossypii, 24 h)	mortality at 0.02 % strength ([1]; Aphis gossypii, 24 h)	mortality at 0.2 % strength ([1]; Aphis gossypii, 24 h)	No. insects alive/no. total insects after 24 hours ([1]; concentration 0.002 % w/v active principle)	No. insects alive/no. total insects after 24 hours ([1]; concentration 0.02 % w/v active principle)	No. insects alive/no. total insects after 24 hours ([1]; concentration 0.2 % w/v active principle)	Mortality % [2, 4]	No. insects alive/no. total insects after 48 hours [2, 4]	Mortality % [2, 5]	No. insects alive/no. total insects after 48 hours [2, 5]	Mortality % [3, 6]	No. insects alive/no. total insects after 24 hours [3, 6]	Mortality % [3, 7]	No. insects alive/no. total insects after 24 hours [3, 7]
CC(C)C(C(=O)OC(C#N)c1cccc(Oc2ccccc2)c1)c1ccc(Cl)cc1 (centres unmarked) [fenvalerate]	0%	20%	40%	10/10	8/10	6/10	–	–	–	–	–	–	–	–
CC1(C)C(C=C(Cl)Cl)C1C(=O)OC(C#N)c1cccc(Oc2ccccc2)c1 (centres unmarked) [αcypermethrin]	–	–	–	–	–	–	19%	22/27	67%	4/12	40%	6/10	60%	4/10
